Like-named read-outs stand apart in the source and are kept apart here. Where a SMILES comes first, the peptide text is derived from it.
Tests used:
[1] = tested on: HTLV-IIIB replication in H9 cells; experiment: Dose response and combination experiments, p24 ELISA; type: cell-based, HIV; conditions: Human immunodeficiency virus 1, IIIB, H9, read-out: approximate ID50 (p24 antigen reduced by 50%), supernatants diluted 1/5
Protocol: The results in Tables 10 and 11 were obtained as described in Example 2. The supernatants were tested for p24 on day 8 p.i. Supernatants were serially diluted (1/5, 1/50 and 1/500) and analyzed by ELISA as described in Example 2.

ELI1/HUT [2] = tested on: ELI1/HUT
Protocol: (§1) Table 1 lists the peptides and their amino acid sequences tested against the following virus/cell systems: • (1) HTLV-111B/H9 Denmark (obtained from Denmark, Bent Faber-Vestergard); • (2) HTLV-111B/H9 New York (obtained from Dr. William Hall, North Shore Hospital, Manhasset, N.Y.); and • (3) ELI-1/HUT (obtained from Dr. Levy, San Francisco, CA).
(§2) Virus at 100 50% tissue culture infectious doses (TCID50) and peptides at concentrations of 250 and 25 µg/ml were added to the cells simultaneously and incubated for 2 hours at 4°C with frequent stirring. Subsequently, the temperature was increased to 37°C and the mixtures were subjected to a second incubation for 2 hours. Following the second incubation, the cells were centrifuged at 325 x g and washed once in RPMI medium (Gibco Laboratories, NY). Cells, at a concentration of 5 x 10^5/ml, were then added to 24 multidish well plates at a final volume of 1.5 ml of growth medium (RPMI supplemented with 10% fetal calf serum (FCS), antibiotics and polybrene (2 µg/ml)), with the addition of peptides at dilutions of 250 or 25 µg/ml. […] As additional controls, two HIV infected cell cultures (designated pos. controls 1 and 2, Tables 3-5) and two uninfected cell cultures (designated neg. controls 1 and 2) were used.
(§3) Infected cells were continuously monitored for formation of syncytia and the growth medium supernatants were analyzed at days 9-12 p.i. for p24 antigen which is an indicator of HIV replication.
(§4) Briefly, the following protocol was used for detection of the p24 antigen. HIV p24 antigen was determined using a rabbit anti-p24 polyclonal antiserum as capture antibody and a biotinylated rabbit anti-p24 polyclonal antibody was used as detecting antibody in an avidin-horse radish peroxidase (HRP) ELISA. The sensitivity of the assay allowed detection of approximately 50 pg of p24 antigen per ml supernatant. […] Serial dilutions of the supernatants were made so as to detect p24 concentration in the most accurate range (< 2.0 absorbance units).
(§5) At the end of the experiment, the cells were collected and fixed on slides with acetone according to standard procedures as described in Jeansson et al., Exp. Cell Res., 161:181-188 (1985). The number of infected cells were then determined by indirect immunofluorescence using a human HIV positive serum diluted 1/100 and FITC conjugated antihuman IgG (Bio Merieux, France) diluted 1/200.
(§6) In tables 3-6, the p24 content of the supernatants of infected cells was determined by diluting the supernatants of infected cells in serial tenfold dilutions (1/10, 1/100, 1/1000 and 1/10,000) and analyzing in ELISA as described above. Results are indicated by the absorbance values (454nm) of respective dilutions.

HTLV IIIB/H9 Denmark = tested on: HTLV IIIB/H9 Denmark
Protocol: as §1, §2, §3, §4, §5, §6

HTLV IIIB/H9 N.Y. [3] = tested on: HTLV IIIB/H9 N.Y.
Protocol: as §1, §2, §3, §4, §5, §6
The peptides in their carboxy and amido forms were obtained from Bachem Feinchemikalien AG (Switzerland, GPG-NH2 Bachem, GPG-COOH, Bachem, PG-NH2 Bachem and PG-COOH Bachem) and Syntello (Sweden, GPG-NH2 Syntello). The effectiveness of the peptides was determined by both p24 production and syncytia formation as described in Example 2.
In tables 8 and 9, the p24 content of the supernatants of infected cells was determined by diluting the supernatants in serial tenfold dilutions (1/10, 1/100, 1/1,000) and analyzing by ELISA as described in Example 2. Results are indicated by the absorbance values (454 nm) of respective dilutions.

[4] = tested on: herpes simplex virus type I (HSV-1) strain McIntyre; experiment: Yield inhibition assay of HSV-1 in GMK cells; type: cell-based
Protocol: To determine the specificity and toxicity of the peptides, Tyr-Arg-Gly-Pro-Gly, Gly-Pro-Gly and Arg-Gly-Pro-Gly were tested in (1) a plaque reduction assay and (2) a yield inhibition assay of herpes simplex virus type I (HSV-1) strain McIntyre.
The yield inhibition assay was performed as follows: HSV-1 was inoculated at a multiplicity of 0.5 pfu per GMK cell in the presence of the respective peptide at concentrations of 250 and 25 µg/ml. Virus adsorption was performed for 60 min. at room temperature. The cells were then rinsed five times with Hanks' Balanced Salt Solution (BSS) and incubated in a 5% CO2 atmosphere at 37°C with maintenance medium containing either peptides or acyclovir, according to the methods described in "Proceedings of a Symposium on Acyclovir", The American Journal of Medicine, July 20, (1982) which is incorporated herein by reference, or without any additives. Twenty-four hours p.i. the cells were freeze-thawed, scraped into the medium and tested for virus yield by the infectivity assay as outlined in Example 2. The results are shown in Table 7 where the plaque reduction values are the mean of two cultures and the yield of HSV-1 after 24 hours is the mean of two determinations and the values are presented in millions of pfu/ml.

[5] = tested on: peripheral blood mononuclear cells; experiment: Viability of mononuclear cells, flow cytometry after propidium iodide; type: cell-based, human
Protocol: The possibility that Gly-Pro-Gly may affect the viability and/or function of normal human circulating lymphomonocytic cells was examined by adding Gly-Pro-Gly to unfractionated and T cell enriched (CD2^+ = nominal T cells; CD4^+ = putative helper/inducer T cell subset; CD8+ = putative cytotoxic/suppressor T cell subset) peripheral blood mononuclear cell suspensions from healthy normal blood donors.
Thus, the viability of peripheral blood mononuclear cells exposed to Gly-Pro-Gly (2 mM, 4 days) was 99.67% and that of corresponding unexposed cells was 99.66% (mean of 4 experiments).

[6] = In vivo toxicity, growth of mice after intraperitoneal injections; conditions: intraperitoneal injections starting at an age of 6 days; compared with controls
Description: In an in vivo test of the toxicity of Gly-Pro-Gly, groups of mice were given intraperitoneal injections of the substance starting at an age of 6 days. Figure 3 also graphically depicts the results. […] The peptides are thus non-toxic even when given in large doses.

ELI1/HUT [7] = experiment: Infectivity assay (p24 ELISA, indirect immunofluorescence), ELI-1/HUT; type: cell-based, HIV
HTLV IIIB/H9 N.Y. [8] = experiment: Infectivity assay (p24 ELISA, syncytia formation, indirect immunofluorescence), HTLV-IIIB/H9 New York; type: cell-based, HIV
HIV = type: cell-based
Protocol: Virus at 100 50% tissue culture infectious doses (TCID50) and peptides at concentrations of 250 and 25 µg/ml were added to the cells simultaneously and incubated for 2 hours at 4°C with frequent stirring. Subsequently, the temperature was increased to 37°C and the mixtures were subjected to a second incubation for 2 hours. […] Cells, at a concentration of 5 x 10^5/ml, were then added to 24 multidish well plates at a final volume of 1.5 ml of growth medium (RPMI supplemented with 10% fetal calf serum (FCS), antibiotics and polybrene (2 µg/ml)), with the addition of peptides at dilutions of 250 or 25 µg/ml. […]
as §3
as §4, with “ELISA.” for “ELISA. The sensitivity of the assay allowed detection of approximately 50 pg of p24 antigen per ml supernatant.”, “units). […]” for “units).”

Cc1cn([C@H]2C[C@H](N=[N+]=[N-])[C@@H](CO)O2)c(=O)[nH]c1=O [AZT, azidothymidine]
IC50 ([1]; day 8 postinfection): ~0.4 µM
IC50 ([1]; twelve days after infection): ~3.2 µM
PERCENTAGE OF POS CELLS (ELI1/HUT [2]; 0.2 µM): 10
PERCENTAGE OF POS CELLS (ELI1/HUT [2]; 2 µM): 10
PERCENTAGE OF POS CELLS (ELI1/HUT [2]; 20 µM): 10-15
# OF SYNCYTIA/WELL Day 9 (HTLV IIIB/H9 Denmark; 0.2 µM): 16
% OF POS CELLS (HTLV IIIB/H9 Denmark; 0.2 µM): 5-10%
# OF SYNCYTIA/WELL Day 9 (HTLV IIIB/H9 Denmark; 2 µM): 10
% OF POS CELLS (HTLV IIIB/H9 Denmark; 2 µM): 5-8%
# OF SYNCYTIA/WELL Day 9 (HTLV IIIB/H9 Denmark; 20 µM): 0
% OF POS CELLS (HTLV IIIB/H9 Denmark; 20 µM): 0.1-1%
# OF SYNCYTIA/WELL Day 9 (HTLV IIIB/H9 N.Y. [3]; 0.2 µM): 22
# OF SYNCYTIA/WELL Day 14 (HTLV IIIB/H9 N.Y. [3]; 0.2 µM): >100
% OF POS CELLS (HTLV IIIB/H9 N.Y. [3]; 0.2 µM): 10%
# OF SYNCYTIA/WELL Day 14 (HTLV IIIB/H9 N.Y. [3]; 0.2 µM, Table 6): 29
PERCENTAGE OF AG POS CELLS (HTLV IIIB/H9 N.Y. [3]; 0.2 µM, Table 6): 30
# OF SYNCYTIA/WELL Day 9 (HTLV IIIB/H9 N.Y. [3]; 2 µM): 11
# OF SYNCYTIA/WELL Day 14 (HTLV IIIB/H9 N.Y. [3]; 2 µM): >100
% OF POS CELLS (HTLV IIIB/H9 N.Y. [3]; 2 µM): 10-15%
# OF SYNCYTIA/WELL Day 14 (HTLV IIIB/H9 N.Y. [3]; 2 µM, Table 6): 4
PERCENTAGE OF AG POS CELLS (HTLV IIIB/H9 N.Y. [3]; 2 µM, Table 6): 0.5-2
# OF SYNCYTIA/WELL Day 9 (HTLV IIIB/H9 N.Y. [3]; 20 µM): 0
# OF SYNCYTIA/WELL Day 14 (HTLV IIIB/H9 N.Y. [3]; 20 µM): 11
% OF POS CELLS (HTLV IIIB/H9 N.Y. [3]; 20 µM): 0-1%
# OF SYNCYTIA/WELL Day 14 (HTLV IIIB/H9 N.Y. [3]; 20 µM, Table 6): 0

Nc1nc2c(ncn2COCCO)c(=O)[nH]1 [Acyclovir, acyclovir]
yields of HSV-1 ([4]; 2 µM): significantly reduced
YIELD OF HSV AFTER 24 HOURS ([4]; 2 µM, mean of two determinations): 0.9 millions of pfu/ml
activity at 2 µM ([4]; Human alphaherpesvirus 1, GMK, 24 h, read-out: YIELD OF HSV AFTER 24 HOURS PERCENT OF CONTROL): 3%

NCC(=O)N1CCC[C@H]1C(=O)NCC(N)=O [GPG, Gly-Pro-Gly-NH2] (H-Gly-Pro-Gly-NH2)
viability of peripheral blood mononuclear cells ([5]; 2 mM, 4 days, mean of 4 experiments, unexposed cells 99.66%): 99.67%
effect on viability of cultured monocytes and lymphocytes ([5]; doses as high as 2 mM, exposure as long as 4 days): did not appreciably affect the viability
influence on the growth of mice [6]: no significant influence

Arg-Gly-Pro-Gly-Arg (RGPGR; printed: Arg-Gly-Pro-Gly-Arg)
PERCENTAGE OF POS CELLS (ELI1/HUT [7]; 25 µg/ml): 10-15
p24 1/10 (ELI1/HUT [7]; 25 µg/ml): 3 absorbance (454 nm)
p24 1/100 (ELI1/HUT [7]; 25 µg/ml): 2.296 absorbance (454 nm)
p24 1/1,000 (ELI1/HUT [7]; 25 µg/ml): 0.745 absorbance (454 nm)
p24 1/10,000 (ELI1/HUT [7]; 25 µg/ml): 0.263 absorbance (454 nm)
PERCENTAGE OF POS CELLS (ELI1/HUT [7]; 250 µg/ml): 10-15
p24 1/10 (ELI1/HUT [7]; 250 µg/ml): 3 absorbance (454 nm)
p24 1/100 (ELI1/HUT [7]; 250 µg/ml): 1.999 absorbance (454 nm)
p24 1/1,000 (ELI1/HUT [7]; 250 µg/ml): 0.788 absorbance (454 nm)
p24 1/10,000 (ELI1/HUT [7]; 250 µg/ml): 0.339 absorbance (454 nm)
# OF SYNCYTIA/WELL Day 9 (HTLV IIIB/H9 N.Y. [8]; 25 µg/ml): 14
# OF SYNCYTIA/WELL Day 14 (HTLV IIIB/H9 N.Y. [8]; 25 µg/ml): >100
% OF POS CELLS (HTLV IIIB/H9 N.Y. [8]; 25 µg/ml): 5-10%
p24 1/10 (HTLV IIIB/H9 N.Y. [8]; 25 µg/ml): 2.16 absorbance (454 nm)
p24 1/100 (HTLV IIIB/H9 N.Y. [8]; 25 µg/ml): 0.853 absorbance (454 nm)
p24 1/1,000 (HTLV IIIB/H9 N.Y. [8]; 25 µg/ml): 0.268 absorbance (454 nm)
p24 1/10,000 (HTLV IIIB/H9 N.Y. [8]; 25 µg/ml): 0.145 absorbance (454 nm)
# OF SYNCYTIA/WELL Day 9 (HTLV IIIB/H9 N.Y. [8]; 250 µg/ml): 14
# OF SYNCYTIA/WELL Day 14 (HTLV IIIB/H9 N.Y. [8]; 250 µg/ml): >100
% OF POS CELLS (HTLV IIIB/H9 N.Y. [8]; 250 µg/ml): 10%
p24 1/10 (HTLV IIIB/H9 N.Y. [8]; 250 µg/ml): 2.116 absorbance (454 nm)
p24 1/100 (HTLV IIIB/H9 N.Y. [8]; 250 µg/ml): 0.974 absorbance (454 nm)
p24 1/1,000 (HTLV IIIB/H9 N.Y. [8]; 250 µg/ml): 0.334 absorbance (454 nm)
p24 1/10,000 (HTLV IIIB/H9 N.Y. [8]; 250 µg/ml): 0.15 absorbance (454 nm)
infection of treated cells by p24 synthesis and syncytia formation (HIV; Tables 3-5): became infected
prevention of HIV infection by p24 levels and syncytia formation (HIV; Tables 3 to 6): did not prevent HIV infection

From patent publication EP0545991B1, “PEPTIDES THAT BLOCK HUMAN IMMUNODEFICIENCY VIRUS INFECTIONS AND METHODS OF USE THEREOF” (VAHLNE, Anders, priority 1990, dated 1992)
